Laboratory results published in patent publication US20020045668A1, “Compositions for sustained release of analgesic agents, and methods of making and using the same” (priority 2000, published 2002).

Key:
[1] = cited from earlier work
[2] = data not shown

Compound	Solubility in Organic Solvents [1]	T80% (time required for 80% of lidocaine to be released) [2]
OC[C@@H](O)[C@@H](O)[C@H](O)[C@H](O)CO [Mannitol]	Practically insoluble	
C/C=C/C=C/C(=O)O [Sorbic acid]	1 in 15 chloroform	
CC(C)CCC[C@@H](C)[C@H]1CC[C@H]2[C@@H]3CC=C4C[C@@H](O)CC[C@]4(C)[C@H]3CC[C@]12C [Cholesterol]	1 in 4.5 chloroform	
O=C1NS(=O)(=O)c2ccccc21 [Saccharin]	Slightly soluble	
CCCCC(CC)COC(=O)CC(C(=O)OCC(CC)CCCC)S(=O)(=O)O (stereo not drawn) [Docusate]	1 in 1	
CCN(CC)CC(=O)Nc1c(C)cccc1C [pure lidocaine, lidocaine]		less than 30 minutes
